{"source": "paper PMC10052957", "about": "“Exploring Synthetic Dihydrobenzofuran and Benzofuran Neolignans as Antiprotozoal Agents against Trypanosoma cruzi” (Pharmaceutics, 2023)", "key": {"[1]": {"test_system": "chloroquine-resistant Plasmodium falciparum (strain K1)", "set-up": "method as in PMID 15653333", "settings": "cited from earlier work"}, "[2]": {"test_system": "Leishmania donovani axenic amastigotes", "set-up": "method as in PMID 15653333", "settings": "cited from earlier work"}, "[3]": {"test_system": "Leishmania donovani infected macrophage", "set-up": "method as in PMID 15653333", "settings": "cited from earlier work"}, "[4]": {"test_system": "trypomastigote forms of Trypanosoma brucei rhodiense", "set-up": "method as in PMID 15653333", "settings": "cited from earlier work"}, "[5]": {"assay": "Cytotoxicity in LLC-MK2 cells (trypan blue)", "type": "cell-based, Monkey (Macaca mulata)", "settings": "rhesus monkey (Macaca mulatta), 95% confidence limits in parentheses", "method": "To assess the cytotoxic activity of DBNs 1–4 using trypan blue, LLC-MK2 cells were sown at a concentration of 2 × 10^5 cells per well in 96-well plates. DBNs 1, 2, 3, 4, and BZN previously dissolved with DMSO were added to achieve the concentration range of 6.25-100 µM and incubated at 37 °C in a 5% CO2 humidified incubator (Sanyo) for 72 h. Next, the cells were trypsinized for 30 s, and then 10 μL of the supernatant was stained with 10 μL of a 0.4% trypan blue solution (Synth, São Paulo, Brazil). Cell counting was performed using transmitted light microscopy (Nikon) with 40X magnification using a Neubauer’s chamber (Global Glass), with a total of 100 cells being counted, where cellsstained blue were considered non-viable. Cell counting was used to obtain the CC50."}, "[6]": {"assay": "Cytotoxicity in murine spleen cells (propidium iodide, flow cytometry)", "type": "cell-based, Swiss mice (Mus musculus)", "settings": "Swiss, mouse, 95% confidence limits in parentheses", "method": "The cytotoxicity of DBNs 1–4 was determined using the propidium iodide and trypan blue methodologies. To assess the cytotoxic activity using propidium iodide, mice spleen cells were sown at a concentration of 6.5 × 10^6 cells/mL in a 24-well plate. DBNs 1, 2, 3, 4, and BZN were added at concentrations ranging from 1.95 to 250 µM and incubated for 24 h at 37 °C in a 5% CO2 humidified incubator (Sanyo). After the incubation period, the cells were harvested and incubated with a 10 µg/mL propidium iodide solution (Sigma-Aldrich, St. Louis, MO, USA). The cell acquisition was performed within 15 min using a flow cytometer (BD-FACSCanto™II; BD Biosciences, BR), and cell counting was used to obtain the CC50 (50% cytotoxic concentration)."}, "[7]": {"test_system": "amastigotes forms of the T. cruzi Y strain", "assay": "In vitro antitrypanosomal activity against amastigotes of moderately drug-resistant T. cruzi Y strain (Giemsa counting in LLC-MK2 cells)", "type": "cell-based, Trypanosoma cruzi", "settings": "for SI Y Strain: CC50 of LLC-MK2 divided by IC50 at 72 h; for IC50: Trypanosoma cruzi, LLC-MK2, amastigotes, after 72 h, 95% confidence limits in parentheses"}, "Erythrocytes": {"test_system": "Erythrocytes", "assay": "Hemolytic activity on defibrinated sheep blood", "type": "cell-based", "settings": "sheep red blood cells, 30 min, 37 °C", "method": "The hemolytic activity was determined as described by Kaplum and co-workers with adaptations. Defibrinated sheep blood was diluted in 0.9% saline solution. Neolignans 1, 2, 3, 4, and BZN were solubilized in DMSO (Sigma-Aldrich, St. Louis, MO, USA) and added to microtubes containing red blood cells in concentrations from 6.25 to 100 µM. […] Distilled water was used as a positive control, and a 0.9% saline solution with 0.1% DMSO was used as the negative control."}, "[8]": {"test_system": "trypomastigote forms of the T. cruzi Y strain", "set-up": "method as in PMID 21570099", "settings": "cited from earlier work"}, "[9]": {"test_system": "60 humor tumor cell lines", "set-up": "method as in PMID 10639289", "settings": "molar drug concentration required for 50% growth inhibition; cited from earlier work"}, "[10]": {"test_system": "epimastigote forms of the T. cruzi Y strain", "set-up": "method as in PMID 17015964", "settings": "cited from earlier work"}, "[11]": {"test_system": "epimastigote forms of the T. cruzi H6 strain", "set-up": "method as in PMID 12230115", "settings": "cited from earlier work"}, "[12]": {"settings": "value in parentheses, read-out: IC50"}}, "note": "Read-outs that look alike come from different tables or passages of the source.", "data": [{"compound": "CCCCOC(=O)C=Cc1cc(O)c2c(c1)C(C(=O)OCCCC)C(c1ccc(O)c(O)c1)O2", "note": "(stereo not drawn)", "values": [{"measurement": "IC50", "setting": "[1]", "result": 0.43, "unit": "µg/mL"}, {"measurement": "IC50", "setting": "[2]", "result": 0.12, "unit": "µg/mL"}, {"measurement": "IC50", "setting": "[3]", "result": 0.19, "unit": "µg/mL"}, {"measurement": "IC50", "setting": "[4]", "result": 0.29, "unit": "µg/mL"}]}, {"compound": "COC(=O)C=Cc1ccc2c(c1)C(C(=O)OC)C(c1ccc(O)cc1)O2", "note": "(mixture of isomers) [Compound 1, (±)-trans-dehydrodicoumarate dimethyl ester]", "values": [{"measurement": "CC50 at 72 h", "setting": "[5]", "result": 70.9, "unit": "µM"}, {"measurement": "CC50 at 24 h", "setting": "[6]", "result": 49.9, "unit": "µM"}, {"measurement": "SI Y Strain", "setting": "[7]", "result": 21.73}, {"measurement": "IC50", "setting": "[7]", "result": 3.26, "unit": "µM"}, {"measurement": "CH50 Erythrocytes", "setting": "Erythrocytes", "result": ">100", "unit": "µM"}]}, {"compound": "C/C=C/c1cc(OC)c2c(c1)[C@@H](C)[C@H](c1ccc(O)c(OC)c1)O2", "note": "[(+)-licarin]", "values": [{"measurement": "IC50", "setting": "[8]", "result": 87.7, "unit": "µM"}]}, {"compound": "C/C=C/c1cc(OC)c2c(c1)[C@H](C)[C@@H](c1ccc(O)c(OC)c1)O2", "note": "[(-)-licarin]", "values": [{"measurement": "IC50", "setting": "[8]", "result": 23.5, "unit": "µM"}]}, {"compound": "O=C(Cn1ccnc1[N+](=O)[O-])NCc1ccccc1", "note": "[BZN, benznidazole, reference compound]", "values": [{"measurement": "CC50 at 72 h", "setting": "[5]", "result": 43.2, "unit": "µM"}, {"measurement": "CC50 at 24 h", "setting": "[6]", "result": 1.81, "unit": "µM"}, {"measurement": "SI Y Strain", "setting": "[7]", "result": 12.13}, {"measurement": "IC50", "setting": "[7]", "result": 3.56, "unit": "µM"}]}, {"compound": "COC(=O)C=Cc1cc(OC)c2c(c1)C(C(=O)OC)C(c1ccc(O)c(OC)c1)O2", "note": "(stereo not drawn) [Compound 2]", "values": [{"measurement": "CC50 at 72 h", "setting": "[5]", "result": 67.6, "unit": "µM"}, {"measurement": "CC50 at 24 h", "setting": "[6]", "result": 34.2, "unit": "µM"}, {"measurement": "IC50", "setting": "[7]", "result": "> 25", "unit": "µM"}, {"measurement": "CH50 Erythrocytes", "setting": "Erythrocytes", "result": ">100", "unit": "µM"}]}, {"compound": "COC(=O)C=Cc1cc(O)c2c(c1)C(C(=O)OC)C(c1ccc(O)c(O)c1)O2", "note": "(stereo not drawn) [Compound 3]", "values": [{"measurement": "CC50 at 72 h", "setting": "[5]", "result": 30.8, "unit": "µM"}, {"measurement": "CC50 at 24 h", "setting": "[6]", "result": "< 1.95", "unit": "µM"}, {"measurement": "GI50", "setting": "[9]", "result": 0.3, "unit": "µM"}, {"measurement": "IC50", "setting": "[7]", "result": "> 25", "unit": "µM"}, {"measurement": "CH50 Erythrocytes", "setting": "Erythrocytes", "result": ">100", "unit": "µM"}]}, {"compound": "COC(=O)C=Cc1ccc2c(c1)C(C(=O)OC)C(c1ccc(OC(C)=O)cc1)O2", "note": "(stereo not drawn) [Compound 4]", "values": [{"measurement": "CC50 at 72 h", "setting": "[5]", "result": 67.5, "unit": "µM"}, {"measurement": "CC50 at 24 h", "setting": "[6]", "result": 51.1, "unit": "µM"}, {"measurement": "IC50", "setting": "[7]", "result": "> 25", "unit": "µM"}, {"measurement": "CH50 Erythrocytes", "setting": "Erythrocytes", "result": ">100", "unit": "µM"}, {"measurement": "melting point", "result": "103 to 105", "unit": "°C"}]}, {"compound": "COC(=O)/C=C/c1ccc2oc(-c3ccc(O)cc3)c(C(=O)OC)c2c1", "note": "[Compound 7]", "values": [{"measurement": "melting point", "result": "204 to 206", "unit": "°C"}]}, {"compound": "OCC=Cc1ccc2c(c1)C(CO)C(c1ccc(O)cc1)O2", "note": "(stereo not drawn) [Compound 9]", "values": [{"measurement": "melting point", "result": "139 to 140", "unit": "°C"}]}, {"compound": "COC(=O)C=Cc1cc(OC)c2c(c1)C(C(=O)OC)C(c1ccc(OC(=O)c3ccccc3)c(OC)c1)O2", "note": "(stereo not drawn) [Compound 11]", "values": [{"measurement": "melting point", "result": "109 to 111", "unit": "°C"}]}, {"compound": "COC(=O)CCc1ccc2c(c1)C(C(=O)OC)C(c1ccc(O)cc1)O2", "note": "(stereo not drawn) [Compound 12]", "values": [{"measurement": "melting point", "result": "108 to 110", "unit": "°C"}]}, {"compound": "OCCCc1ccc2c(c1)C(CO)C(c1ccc(O)cc1)O2", "note": "(stereo not drawn) [Compound 14]", "values": [{"measurement": "melting point", "result": "120 to 121", "unit": "°C"}]}, {"compound": "C/C=C/c1ccc2c(c1)[C@@H](C)[C@H](c1ccc(O)cc1)O2", "note": "[conocarpan]", "values": [{"measurement": "IC50", "setting": "[10]", "result": 8.0, "unit": "µg/mL"}, {"measurement": "IC50", "setting": "[10]; [12]", "result": 30, "unit": "µM"}]}, {"compound": "C/C=C/c1ccc2oc(-c3ccc(O)cc3)c(C)c2c1", "note": "[eupomatenoid-6]", "values": [{"measurement": "IC50", "setting": "[10]", "result": 7.5, "unit": "µg/mL"}, {"measurement": "IC50", "setting": "[10]; [12]", "result": 28.4, "unit": "µM"}]}, {"compound": "C/C=C/c1cc(OC)c2oc(-c3ccc(O)c(OC)c3)c(C)c2c1", "note": "[eupomatenoid-7]", "values": [{"measurement": "IC50", "setting": "[11]", "result": 77, "unit": "µM"}]}, {"compound": "C/C=C/c1cc(OC)c2c(c1)[C@H](C)[C@@H](c1ccc(O)c(OC)c1)O2", "note": "[licarin A]", "values": [{"measurement": "IC50", "setting": "[11]", "result": 123, "unit": "µM"}]}, {"compound": "(±)-licarin", "values": [{"measurement": "IC50", "setting": "[8]", "result": 127, "unit": "µM"}]}, {"compound": "Eupatemoid-3", "values": [{"measurement": "IC50", "setting": "[10]", "result": 26.3, "unit": "µg/mL"}, {"measurement": "IC50", "setting": "[10]; [12]", "result": 90.9, "unit": "µM"}]}, {"compound": "eupomatenoid-5", "values": [{"measurement": "IC50", "setting": "[10]", "result": 7.0, "unit": "µg/mL"}, {"measurement": "IC50", "setting": "[10]; [12]", "result": 23.8, "unit": "µM"}]}]}
